By pIC50 is commonly meant the IC50 on a negative log10 scale, so that one unit is a factor of ten. In general, CC50 refers to the concentration at which the toxic effect on the cells reaches its halfway point. The melting point is the temperature, or range, at which the solid turns liquid.

In data set [1] the test system is promastigotes of Leishmania amazonensis (MHOM/BR/1973/M2269). Briefly: Antileishmanial assay against promastigotes (PrestoBlue viability). The settings on record: L. amazonensis promastigotes. The format is cell-based. As to the method: All compounds were assayed against promastigotes of Leishmania amazonensis (MHOM/BR/1973/M2269). Promastigotes were grown in 199 media (Sigma, USA) supplemented with 10% (v/v) of fetal bovine serum, 1% penicillin (10,000 UI/mL)/streptomycin (10.0 mg/mL) (Sigma, USA). The parasites were collected at log phase, they were counted at the Neubauer chamber, their concentration was adjusted to 1 × 10^6 cell/mL, and their cells were seeded at a 96-wells plate. The 4-phenyl-2-aminothiazoles were added to the culture, considering concentrations ranging from 3.2 to 142 μM. Compounds were diluted in Dimethyl sulfoxide (DMSO) (25 mg/mL) and diluted in 199 media to generate a 1% DMSO starting solution of each test compound. Positive control with no compounds and DMSO control were considered at the assay. All plates were incubated at 25 °C for 48 h, and PrestoBlue® vital dye was added to the wells.
Viability was accessed with PrestoBlue® (Invitrogen, ThermoFisher) according to the manufacturer’s instructions. The reagent was added in each well (10 μL) and plates incubated for 2 h. Then, plates were read on a microplate reader (PowerWave HT, Biotek) with excitation/emission 560/590 nm (nm). The relative fluorescence units were used to generate the quantitative results. All compounds were analyzed as duplicates, and the parameters to calculate IC50 were obtained by GraphPad Prism, version 5.0. IC50 values were determined by the Hill equation rearranged. LogIC50=logEC50−logTop−Bottom/Y−Bottom−1/HillSlope

Another data set deals with THP1 cells. Briefly: Cytotoxicity assay in THP-1 cells differentiated into macrophages (PrestoBlue). The class given is cell-based, human. As to the method: (§1) The cytotoxicity was measured in L929 and THP1 cell lines using PrestoBlue®Cell Viability Reagent (Thermo Scientific, Invitrogen) as described by Lall et al. with modifications. First, cells were maintained in RPMI 1640 (Gibco) supplemented with 10% fetal bovine serum (FBS) and 1% antibiotics (100 U/mL penicillin, 100 μg/mL streptomycin). Cell cultures were grown and maintained at 37 °C in a humidified incubator with 5% CO2. Then, L929 cells were seeded in 96-wells flat microtiter plate at a concentration of 1 × 10^5cells/mL (100 μL/well). To THP-1 cells, cultures were differentiated into macrophages by adding 50 ng/mL 12-myristate 13-acetate phorbol (PMA) (Calbiochem, San Diego, USA) in RPMI-free FBS. After 24 h of culturing, the adhered cells were washed with PBS and RPMI with 10% FBS were added. […] The plates were incubated for 48 h and, thereafter, 20 μL/well PrestoBlue® was added. The plates were incubated for further 2 h and the fluorescence was read at bottom using 540–570 nm excitation and 580–610 nm emission. The average of the fluorescence values of the control wells (medium plus PrestoBlue®) was subtracted from the fluorescence value of the positive controls (cells, medium, and PrestoBlue®) and from each experimental well (cells, medium, compounds and PrestoBlue®). In all cases, the CC50 was calculated as described as in the Antileishmanial assay Section. Selectivity indexes (SI) were calculated by dividing CC50 against each mammalian cell line by the IC50 against L. amazonensis (CC50/IC50).

The next data set deals with L929 cells. Briefly: Cytotoxicity assay in L929 cells (PrestoBlue). The format is cell-based. As to the method:
as §1

The next data set deals with VERO cells. Nature of the data set: Cytotoxicity assay in Vero cells (MTT). The format is cell-based, African green monkeys. As to the method:
(§2) Cytotoxicity was also evaluated using Vero cells, a monkey kidney cell line obtained from the American Type Culture Collection (ATCC CCL-81; Manassas, VA). The cytotoxicity was determined by the 3-(4,5dimethylthiazol- 2-yl)-2,5-diphenyltetrazolium bromide (MTT) method according to a previously described procedure.
(§3) In all cases, the CC50 was calculated as described as in the Antileishmanial assay Section.
(§4) Selectivity indexes (SI) were calculated by dividing CC50 against each mammalian cell line by the IC50 against L. amazonensis (CC50/IC50).

Data set [2] in a line: Cytotoxicity assay in THP-1 cells differentiated into macrophages (PrestoBlue). The settings on record: human, THP-1 cells differentiated into macrophages with PMA; PMA-differentiated THP-1, 48 h, PrestoBlue; read-out: CC50 THP1 cells. The class given is cell-based, human. As for the experimental part:
as §1

Data set [3] is described as follows: Cytotoxicity assay in L929 cells (PrestoBlue). The format is cell-based. The settings on record: mouse, L929 fibroblast cells; L929 fibroblasts, 48 h, PrestoBlue. As for the experimental part:
as §1

Data set [4] in a line: Cytotoxicity assay in Vero cells (MTT). The class given is cell-based, African green monkeys. The note with it: African green monkey, Vero cells (monkey kidney cell line, ATCC CCL-81); Vero cells, MTT. As for the experimental part: as §2, §3, §4
The mark [5] stands for this setting: Leishmania amazonensis, 48 h, 48 h at 25 °C, PrestoBlue, 3.2 to 142 μM tested, read-out: IC50.
The mark [6] stands for this setting: PMA-differentiated THP-1, 48 h, PrestoBlue, read-out: CC50 THP1 cells.
Where [7] appears, read: L929 fibroblasts, 48 h, PrestoBlue, read-out: CC50 L929 cells.
Setting [8] is: Vero cells, MTT, read-out: CC50 VERO cells.
Setting [9] is: 48 h at 25 °C, PrestoBlue, 3.2 to 142 μM tested, read-out: IC50.

Read-outs that look alike come from different tables or passages of the source.

Consider `C[C@@H]1[C@H](O)[C@@H](C)/C=C/C=C/C=C/C=C/C=C/C=C/C=C/[C@H](O[C@@H]2O[C@H](C)[C@@H](O)[C@H](N)[C@@H]2O)C[C@@H]2O[C@](O)(C[C@@H](O)C[C@@H](O)[C@H](O)CC[C@@H](O)C[C@@H](O)CC(=O)O[C@H]1C)C[C@H](O)[C@H]2C(=O)O` [Amphotericin B, reference compound], for which the IC50 in data set [1] (setting [5]) came out at 16.2 µM.

In data set [1] (pIC50 = −log10 (IC50)), `Nc1nc(-c2ccc(C(F)(F)F)cc2)cs1` [Compound 5] gave a pIC50 of 4.27. The CC50 with THP1 cells (setting [6]) is 92.2 µM; in the data set on L929 cells (setting [7]) it was 106 µM; in the data set with VERO cells (setting [8]), 512 µM.

`N=C(N)c1ccc(OCCCCCOc2ccc(C(=N)N)cc2)cc1` [Pentamidine, reference compound]: the IC50 in data set [1] (setting [5]) turned out to be 10.8 µM.

Consider `CC(C)(C)c1ccc(-c2csc(N)n2)cc1` [Compound 6], for which the melting point fell in the range of 227 to 230 °C. Moreover, the IC50 in data set [1] (setting [9]) turned out to be 20.8 µM. Also, the IC50 in data set [1] (setting [5]) came to 21 µM. In addition, the IC50 in data set [1] (Leishmania amazonensis, pIC50 = −log10 (IC50), read-out: pIC50 (converted)) is 20.9 µM. The cytotoxic concentration (CC50) at 48 h in data set [2] came to 45.7 µM. The compound further yielded a 50% cytotoxic concentration (CC50) at 48 h in data set [3] of 27.1 µM. The compound also showed a cytotoxic concentration (CC50) in data set [4] of 118 µM.

The compound `Nc1nc(-c2ccccc2)cs1` [Compound 1] returned a negative-log IC50 (pIC50) in data set [1] (pIC50 = −log10 (IC50)) of 3.02. Also, the figures for the CC50 with THP1 cells (setting [6]), with L929 cells (setting [7]) and in the data set with VERO cells (setting [8]) were 144 µM, 198 µM and 710 µM, respectively.

As for `Nc1nc(-c2ccc(O)cc2)cs1` [Compound 7], the IC50 result in data set [1] (48 h at 25 °C, PrestoBlue, 3.2 to 142 μM tested) was “inactive”. Further, in data set [1] (pIC50 = −log10 (IC50)), the pIC50 entry is “inactive”. Further, the “CC50 THP1 cells” value in the data set with THP1 cells (PMA-differentiated THP-1, 48 h, PrestoBlue) was “inactive”. Besides, in the data set on L929 cells (L929 fibroblasts, 48 h, PrestoBlue), the “CC50 L929 cells” value was “Inactive”. Besides, the CC50 with VERO cells (setting [8]) worked out at 651 µM.

For the compound `CCc1ccc(-c2csc(N)n2)cc1` [Compound 3], the IC50 in data set [1] (setting [9]) was 46.6 µM. This compound showed a pIC50 in data set [1] (pIC50 = −log10 (IC50)) of 4.33. For the same compound, the 50% cytotoxic concentration (CC50) turned out to be 117 µM in the data set on THP1 cells, 95.5 µM in the data set with L929 cells and 1220 µM with VERO cells.

As for `Cc1ccc(-c2csc(N)n2)cc1` [Compound 2], in data set [1] (setting [9]), the IC50 is 108 µM. For the same compound, the negative-log IC50 (pIC50) in data set [1] (pIC50 = −log10 (IC50)) was 3.97. The values for the CC50 in the data set with THP1 cells (setting [6]), in the data set with L929 cells (setting [7]) and with VERO cells (setting [8]) were 135 µM, 160 µM and 658 µM, respectively.

For `Nc1nc(-c2ccc(Cl)cc2)cs1` [Compound 8], the IC50 in data set [1] (setting [9]) was 116 µM. Further, in data set [1] (pIC50 = −log10 (IC50)), the negative-log IC50 (pIC50) was 3.94. Further, the 50% cytotoxic concentration (CC50) in the data set with THP1 cells (setting [6]) is 82.2 µM; in the data set with L929 cells (setting [7]), 115 µM; in the data set on VERO cells (setting [8]) it was 596 µM.

Consider `Nc1nc(-c2ccc(Cl)c(Cl)c2)cs1` [Compound 4], for which the pIC50 in data set [1] (pIC50 = −log10 (IC50)) is 4.27. For the same compound, the CC50 in the data set with THP1 cells (setting [6]) is 84.7 µM; with L929 cells (setting [7]), 121 µM; with VERO cells (setting [8]) it was 255 µM.

(Values after article PMC6131760, “4-Phenyl-1,3-thiazole-2-amines as scaffolds for new antileishmanial agents” (The Journal of Venomous Animals and Toxins Including …, 2018).)
